Test results from patent US20220306617A1, “SUBSTITUTED 1,3-PHENYL HETEROARYL DERIVATIVES AND THEIR USE IN THE TREATMENT OF DISEASE” (NOVARTIS AG, priority 2019, published 2022).
Counter-ions that a name gives are not always drawn.

Biological target: T1, abc isoform of human TMEM16A channel expressed in CHO cells (Homo sapiens, UniProt Q5XXA6, DEL476-501)
T1 construct: expressed in transfected cells; host or cells: CHO cells, doxycycline-inducible expression under Blasticidin/Zeocin selection
T1 sequence (Q5XXA6 with tags, fused parts or gaps isoform Q5XXA6-5 DEL539-564): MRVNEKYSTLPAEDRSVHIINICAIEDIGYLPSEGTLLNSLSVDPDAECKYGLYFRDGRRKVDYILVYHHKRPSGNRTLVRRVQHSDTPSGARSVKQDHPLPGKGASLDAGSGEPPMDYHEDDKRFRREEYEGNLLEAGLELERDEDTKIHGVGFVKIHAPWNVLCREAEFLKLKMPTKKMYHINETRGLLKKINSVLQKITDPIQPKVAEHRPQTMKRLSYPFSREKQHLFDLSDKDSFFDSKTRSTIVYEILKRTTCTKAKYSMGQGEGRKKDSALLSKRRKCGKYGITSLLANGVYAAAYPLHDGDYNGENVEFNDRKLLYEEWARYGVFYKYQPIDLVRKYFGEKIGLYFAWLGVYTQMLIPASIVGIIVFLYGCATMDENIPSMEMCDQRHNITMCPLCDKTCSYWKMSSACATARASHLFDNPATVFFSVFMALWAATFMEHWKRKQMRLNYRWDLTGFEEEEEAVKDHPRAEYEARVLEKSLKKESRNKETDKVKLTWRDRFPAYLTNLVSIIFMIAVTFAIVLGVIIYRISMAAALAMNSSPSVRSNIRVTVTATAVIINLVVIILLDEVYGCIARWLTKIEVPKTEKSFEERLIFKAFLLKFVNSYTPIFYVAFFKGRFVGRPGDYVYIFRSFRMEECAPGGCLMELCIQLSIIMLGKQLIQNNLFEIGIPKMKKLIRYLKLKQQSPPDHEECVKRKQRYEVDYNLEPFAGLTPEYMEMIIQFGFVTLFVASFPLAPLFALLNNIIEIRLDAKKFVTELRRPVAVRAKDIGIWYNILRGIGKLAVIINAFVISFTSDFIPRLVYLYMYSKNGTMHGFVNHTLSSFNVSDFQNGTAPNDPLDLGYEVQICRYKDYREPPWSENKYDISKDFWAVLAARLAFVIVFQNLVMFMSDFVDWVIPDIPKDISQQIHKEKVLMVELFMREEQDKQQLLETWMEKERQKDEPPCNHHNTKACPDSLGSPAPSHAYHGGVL
Assay: Automated patch clamping (QPatch) assay to measure TMEM16A activity in whole-cell
Assay type: cell-based
Conditions: for EC50: CHO cells expressing human TMEM16A (abc), whole-cell automated patch clamp, Hill fit, read-out: TMEM16A QPATCH assay EC50 V3 EC50; for Emax: CHO, read-out: TMEM16A QPATCH assay EC50 V3 Assay Window (% TMEM16A max activation); for Emax / TMEM16A QPATCH assay EC50 V3 Assay Window (% TMEM16A max activation): maximum current at highest dose relative to reference potentiator at maximal concentration (upper limit) and vehicle (lower limit)
Summary of the method: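 Whole-cell currents were recorded by planar automated patch clamp from induced CHO cells (doxycycline 1 μg/mL, 18-24 h), using a −70 mV hold, +70 mV step and −90 to +70 mV ramp. Values: Hill-fitted EC50, and activation scaled between vehicle current and reference-potentiator maximum; 0.3% DMSO final.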

| SMILES | EC50 [nM] | Emax [%] | TMEM16A QPATCH assay EC50 V3 Assay Window (% TMEM16A max activation) [%] |
| --- | --- | --- | --- |
| CCC(CC)NC(=O)c1cc(-c2cccc(-c3ncc(C(=O)NC(C)(C)CCc4ccccc4)o3)c2)[nH]n1 [Example 3.68, N-(2-Methyl-4-Phenylbutan-2-Yl)-2-(3-(3-(Pentan-3-Ylcarbamoylyl-Carbamoyl)-1H-Pyrazol-5-Yl)Phenyl)Oxazole-5-Carboxamide] | 160 | 88 | – |
| CCCC(CCC)NC(=O)c1cnc(-c2cccc(-c3cc(C(=O)NC(CC)CC)n[nH]3)c2)o1 [Example 1.35, N-(Heptan-4-Yl)-2-(3-(3-(Pentan-3-Ylcarbamoyl)-1H-Pyrazol-5-yl)Phenyl)Oxazole-5-Carboxamide] | 70 | 90 | – |
| CCC(CC)NC(=O)c1cc(-c2cccc(-c3ncc(C(=O)NCC4(C)CCCCC4)o3)c2)[nH]n1 [Example 1.34, N-((1-Methylcyclohexyl)Methyl)-2-(3-(3-(Pentan-3-Ylcarbamoyl)-1 H-Pyrazol-5-Yl)Phenyl)Oxazole-5-Carboxamide] | 570 | 72 | – |
| CCC(CC)NC(=O)c1cc(-c2cccc(-c3ncc(C(=O)NCc4ccc5c(c4)OCO5)o3)c2)[nH]n1 [Example 1.31, N-(Benzo[d][1,3]Dioxol-5-Ylmethyl)-2-(3-(3-(Pentan-3-Ylcarbamoyl)-1 H-Pyrazol-5-yl)Phenyl)Oxazole-5-Carboxamide] | 770 | 65 | – |
| CCC(CC)NC(=O)c1cc(-c2cccc(-c3ncc(C(=O)N[C@@H](C)C(=O)OCc4ccccc4)o3)c2)[nH]n1 [Example 1.41, (S)-Benzyl 2-(2-(3-(3-(Pentan-3-Ylcarbamoyl)-1H-Pyrazol-5-yl)Phenyl)Oxazole-5-Carboxamido)Propanoate] | 950 | 75 | – |
| CCC(CC)NC(=O)c1cc(-c2cccc(-c3ncc(C(=O)N[C@@H](C)C4CC4)o3)c2)nn1CCO [Example 4.0, (S)-N-(1-Cyclopropylethyl)-2-(3-(1-(2-Hydroxyethyl)-5-(Pentan-3-Ylcarbamoyl)-1 H-Pyrazol-3-Yl)Phenyl)Oxazole-5-Carboxamide] | 330 | 106 | – |
| C[C@H](NC(=O)c1cc(-c2cccc(-c3ncc(C(=O)NC(C4CC4)C4CC4)o3)c2)nn1CC(O)C(F)(F)F)C1CC1 (single isomer, unassigned) [Example 9.2 (ii)] | 40 | – | 83 |
| CCOC(=O)C1(C)CCN(C(=O)c2cc(-c3cccc(-c4ncc(C(=O)NC(CC)CC)o4)c3)[nH]n2)C1 (stereo not shown) [Example 3.20, Ethyl 3-Methyl-1-(5-(3-(5-(Pentan-3-Ylcarbamoyl)Oxazol-2-Yl)Phenyl)-1H-Pyrazole-3-Carbonyl)Pyrrolidine-3-Carboxylate] | 450 | 82 | – |
| CCC(CC)NC(=O)c1cnc(-c2cccc(-c3cc(C(=O)NC(COC)C(C)C)n[nH]3)c2)o1 (stereo not shown) [Example 3.36, 2-(3-(3-((1-Methoxy-3-Methylbutan-2-Yl)Carbamoyl)-1H-Pyrazol-5-Yl)Phenyl)-N-(Pentan-3-Yl)Oxazole-5-Carboxamide] | 190 | 97 | – |
| CCC(CC)NC(=O)c1cnc(-c2cccc(-c3cc(C(=O)NC(C4CC4)C4CCCO4)n[nH]3)c2)o1 (single isomer, unassigned) [Example 3.4 (iii), 2-(3-(3-((Cyclopropyl(Tetrahydrofuran-2-Yl)Methyl)Carbamoyl)-1H-Pyrazol-5-Yl)Phenyl)-N-(Pentan-3-Yl)Oxazole-5-Carboxamide] | 550 | – | 73 |
| CCOC(=O)[C@H](NC(=O)c1cc(-c2cccc(-c3ncc(C(=O)NC(CC)CC)o3)c2)[nH]n1)c1ccccc1 [Example 3.59, (R)-Ethyl 2-(5-(3-(5-(Pentan-3-Ylcarbamoyl)Oxazol-2-Yl)Phenyl)-1H-Pyrazole-3-Carboxamido)-2-Phenylacetate Trifluoroacetate] | 60 | 106 | – |
| CCC(CC)NC(=O)c1cc(-c2cccc(-c3ncc(C(=O)Nc4cccc(C#N)c4)o3)c2)[nH]n1 [Example 1.27, N-(3-Cyanophenyl)-2-(3-(3-(Pentan-3-Ylcarbamoyl)-1 H-Pyrazol-5-yl)Phenyl)Oxazole-5-Carboxamide] | 920 | 86 | – |
| CCC(CC)NC(=O)c1cc(-c2cccc(-c3ncc(C(=O)N[C@H](C(=O)OC)C(C)C)o3)c2)[nH]n1 [Example 1.47, (S)-Methyl 3-Methyl-2-(2-(3-(3-(Pentan-3-Ylcarbamoyl)-1H-Pyrazol-5-yl)Phenyl)Oxazole-5-Carboxamido)Butanoate] | 150 | 75 | – |
| CCOC(=O)[C@H](CC1CCCCC1)NC(=O)c1cc(-c2cccc(-c3ncc(C(=O)NC(CC)CC)o3)c2)[nH]n1 [Example 3.17, (S)-Ethyl 3-Cyclohexyl-2-(5-(3-(5-(Pentan-3-Ylcarbamoyl)Oxazol-2-Yl)Phenyl)-1 H-Pyrazole-3-Carboxamido)Propanoate] | 170 | 66 | – |
| COC(=O)[C@@H](NC(=O)c1cnc(-c2cccc(-c3cc(C(=O)N[C@@H](C)C4CC4)n[nH]3)c2)o1)C(C)C [Example 1.7, (S)-Methyl 2-(2-(3-(3-(((S)-1-Cyclopropylethyl)Carbamoyl)-1H-Pyrazol-5-yl)Phenyl)Oxazole-5-Carboxamido)-3-Methylbutanoate] | 90 | 69 | – |
| CCOC(=O)[C@@H](NC(=O)c1cnc(-c2cccc(-c3cc(C(=O)NC(C4CC4)C(F)(F)F)[nH]n3)c2)o1)C(C)C (single isomer, unassigned) [Example 2.3 (i)] | 30 | 86 | – |
| CCC(CC)NC(=O)c1cnc(-c2cccc(-c3cc(C(=O)N4CCCC(C)(C)C4)n[nH]3)c2)o1 [Example 3.15, 2-(3-(3-(3,3-Dimethylpiperidine-1-Carbonyl)-1H-Pyrazol-5-Yl)Phenyl)-N-(Pentan-3-Yl)Oxazole-5-Carboxamide] | 200 | 72 | – |

Results, then the compound that gave them:

| EC50 [nM] | Emax [%] | TMEM16A QPATCH assay EC50 V3 Assay Window (% TMEM16A max activation) [%] | SMILES |
| --- | --- | --- | --- |
| 310 | 90 | – | CCOC(=O)[C@@H](NC(=O)c1cnc(-c2cccc(-c3cc(C(=O)NC(CC)CC)n(CCN4CCOCC4)n3)c2)o1)C(C)C [Example 6.0, (S)-ethyl 3-methyl-2-(2-(3-(1-(2-morpholinoethyl)-5-(pentan-3-ylcarbamoyl)-1H-pyrazol-3-yl)phenyl)oxazole-5-carboxamido)butanoate] |
| 240 | 104 | – | CCC(CC)NC(=O)c1cnc(-c2cccc(-c3cc(C(=O)N[C@@H](C)C4CC4)n(CC(C)O)n3)c2)o1 (stereo partly drawn) [Example 9.5, 2-(3-(5-(((S)-1-Cyclopropylethyl)Carbamoyl)-1-(2-Hydroxypropyl)-1H-Pyrazol-3-Yl)Phenyl)-N-(Pentan-3-Yl)Oxazole-5-Carboxamide] |
| 90 | 85 | – | CCC(CC)NC(=O)c1cnc(-c2cccc(-c3cc(C(=O)NC(CC)CC)n(CCO)n3)c2)o1 [Example 9.7, 2-(3-(1-(2-Hydroxyethyl)-5-(Pentan-3-Ylcarbamoyl)-1H-Pyrazol-3-Yl)Phenyl)-N-(Pentan-3-Yl)Oxazole-5-Carboxamide] |
| 290 | 140 | – | C[C@H](NC(=O)c1cnc(-c2cccc(-c3nc(C(=O)N[C@@H](C)C4CC4)n(CCCO)n3)c2)o1)C1CC1 [Example 16.2, N-((S)-1-Cyclopropylethyl)-2-(3-(5-(((S)-1-Cyclopropylethyl)Carbamoyl)-1-(3-Hydroxypropyl)-1H-1,2,4-Triazol-3-Yl)Phenyl)Oxazole-5-Carboxamide] |
| 30 | 92 | – | C[C@H](NC(=O)c1nnc(-c2cccc(-c3ncc(C(=O)NC(C4CC4)C4CC4)o3)c2)[nH]1)C1CC1 [Example 12.5, (S)-2-(3-(5-((1-Cyclopropylethyl)Carbamoyl)-4H-1,2,4-Triazol-3-Yl)Phenyl)-N-(Dicyclopropylmethyl)Oxazole-5-Carboxamide] |
| 110 | 88 | – | C[C@@H](NC(=O)c1nnc(-c2cccc(-c3ncc(C(=O)NC(C4CC4)C4CC4)o3)c2)[nH]1)C1CC1 [Example 13.1, (R)-2-(3-(5-((1-Cyclopropylethyl)Carbamoyl)-4H-1,2,4-Triazol-3-Yl)Phenyl)-N-(Dicyclopropylmethyl)Oxazole-5-Carboxamide] |
